Measured values from US9943607B2, “Beta-glucan compounds, compositions, and methods” (Biothera, Inc., priority 2011, dated 2018).
One block for each substance: values may come before it.

What was measured:
[1] = tested on: human B cells in whole blood; assay: β-glucan binding to B cells in whole blood (BfD IV staining, flow cytometry)
Procedure: Blood was collected from a healthy donor with 10 Units/mL Heparin. 100 μL of blood was mixed with IMPRIME PGG concentrations and incubated at 37° C. for 60 minutes. Cells were washed with 2 mL of PBS and supernatant removed by aspiration. Cells were then stained with 20 μL of BfD IV (U.S. Pat. No. 6,294,321) for 30 minutes before washing again with PBS. 10 μL of goat anti-mouse IgM FITC added to stain for BfD IV positive cells, while 10 μL of anti-CD19 APC was added to stain the B cell population for FACS analysis. Cells were incubated for 30 minutes at room temperature before washing with PBS. The red cells in the blood were lysed by the addition of 2 mL of BD Lyse and fixed with 2% paraformadehyde before analysis on an LSR II flow cytometer. Analysis was performed using FlowJo software.

[2] = tested on: human B cells in enriched PBMC; assay: β-glucan binding to B cells in enriched PBMC (BfD IV staining, flow cytometry); conditions: various hexose concentrations, 37° C., two hours
Procedure: Enriched PBMC were resuspended at 1×10^6 cells/mL in RPMI 1640 supplemented with 10% serum. The β-glucans (IMPRIME PGG (B) and laminarin (C)) at various hexose concentration were added to the cells and incubated in a 37° C., 5% C02 humidified incubator for two hours. After incubation, cells were washed twice with FACS buffer (HBSS supplemented with 1% FBS and 0.1% sodium azide) to remove any unbound β-glucan, and subsequently treated with Fc block. After the Fc block step, cells were stained with the monoclonal antibody BfD IV (U.S. Pat. No. 6,294,321) for 30 minutes at 4° C. and washed twice with cold FACS buffer. Cells were then incubated with FITC-conjugated F(ab′)2 goat anti-mouse IgM for 30 minutes at 4° C. and washed once with cold FACS buffer before fixing with 1% paraformaldehyde. Events were collected on a LSRII flow cytometer and analysis was performed using FlowJo software. Results are shown in FIG. 2B (IMPRIME PGG) and FIG. 2C (laminarin).

Raji cells = assay: Binding of IMPRIME PGG to B cell tumor line Raji; set-up: species or system human; conditions: 50 mcg/mL and 200 mcg/mL
B cells [3] = assay: Calcium flux in PBMC B cells treated in vitro with soluble β-glucan, then stimulated with anti-IgM; type: cell-based, human; conditions: 100 μg/mL, 37° C., one hour; anti-IgM 2.6 μg/mL
Procedure: FURA RED and FLUO-4 (each from Invitrogen, Life Technologies Corp., Carlsbad, Calif.) calcium stain was added to serum free RPMI medium to a final concentration of 3 μM for each dye, then incubated at 37° C. for 30 minutes. PBMCs mixed 1:1 with media containing 10% FCS and incubated an additional 10 minutes. The cells were washed 2× with media containing 10% FCS. Cells were resuspended in RPMI with 10% human serum.
The resuspended cells were incubated with or without the addition of 100 μg/mL IMPRIME PGG at 37° C. for one hour. The monoclonal antibody CD20 APC (BioLegend, Inc., San Diego, Calif.) was added to each tube for 10 minute incubation before washing 2× with RPMI containing 10% FCS. Cells were resuspended in RPMI with 10% FCS for FACS analysis. Calcium flux was induced by stimulating the B cells with goat anti-human IgM at 2.6 μg/mL.

Daudi cells = assay: Binding of IMPRIME PGG to B cell tumor line Daudi; set-up: species or system human; conditions: 50 mcg/mL and 200 mcg/mL
CD19+ B cells = assay: Targeted binding of β-glucan and β-glucan-ERBITUX conjugate to CD19+ B cells in whole blood; set-up: species or system human; conditions: 10 μg/mL, 30 minutes at 37° C.
Procedure: Cells were washed twice with PBS before staining with the β-glucan specific antibody BfD IV (U.S. Pat. No. 6,294,321). Cells were washed again and stained with an antibodies specific for human IgG to detect ERBITUX and CD19 to label B cells. Cells were analyzed on and LSRII flow cytometer and the groups were compared by gating on CD19^+ B cells.

[4] = target: T1, complement receptor 2, (CR2; aka CD21) on B cells (Homo sapiens, UniProt P20023); assay: β-glucan binding and CR2 blocking with anti-CR2 antibody; conditions: IMPRIME PGG at 100 μg/mL; whole blood or PBMC; anti-CR2 clone 1048 at 10 μg/mL
T1 construct: endogenous in cells; host or cells: B cells in whole blood or PBMC
T1 sequence (P20023 21-1033): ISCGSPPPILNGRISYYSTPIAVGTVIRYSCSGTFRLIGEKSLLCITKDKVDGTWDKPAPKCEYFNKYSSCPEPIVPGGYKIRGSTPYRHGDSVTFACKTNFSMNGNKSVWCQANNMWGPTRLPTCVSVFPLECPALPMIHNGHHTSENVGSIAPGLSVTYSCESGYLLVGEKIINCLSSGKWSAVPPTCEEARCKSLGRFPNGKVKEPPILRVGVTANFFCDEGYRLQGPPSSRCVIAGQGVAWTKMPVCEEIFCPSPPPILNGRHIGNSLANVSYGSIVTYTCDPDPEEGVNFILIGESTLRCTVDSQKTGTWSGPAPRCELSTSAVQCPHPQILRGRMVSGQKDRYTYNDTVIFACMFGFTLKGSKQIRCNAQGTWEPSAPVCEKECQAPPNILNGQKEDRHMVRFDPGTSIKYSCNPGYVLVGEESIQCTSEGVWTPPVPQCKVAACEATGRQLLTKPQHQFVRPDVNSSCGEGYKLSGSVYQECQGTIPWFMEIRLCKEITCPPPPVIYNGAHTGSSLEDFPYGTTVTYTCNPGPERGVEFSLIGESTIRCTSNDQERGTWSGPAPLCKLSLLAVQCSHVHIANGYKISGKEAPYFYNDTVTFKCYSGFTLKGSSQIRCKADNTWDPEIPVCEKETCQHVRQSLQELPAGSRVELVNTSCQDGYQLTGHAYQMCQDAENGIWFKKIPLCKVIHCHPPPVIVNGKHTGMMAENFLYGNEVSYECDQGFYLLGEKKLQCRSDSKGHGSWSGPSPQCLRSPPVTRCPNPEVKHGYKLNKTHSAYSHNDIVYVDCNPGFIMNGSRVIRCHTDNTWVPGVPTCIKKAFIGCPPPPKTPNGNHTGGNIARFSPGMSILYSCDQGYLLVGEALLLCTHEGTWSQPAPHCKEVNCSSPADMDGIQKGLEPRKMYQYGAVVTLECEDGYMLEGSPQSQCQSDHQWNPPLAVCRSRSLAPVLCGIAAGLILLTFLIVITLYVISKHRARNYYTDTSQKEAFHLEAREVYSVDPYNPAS
Procedure: Whole blood or PBMC were pre-incubated with specific receptor blocking antibodies or the relevant isotype controls at 4° C. for 30-45 minutes before addition of IMPRIME PGG at 100 μg/mL. Binding to B cells was performed as described in Example 1. Clone 1048, the mouse mAb against CR2, and mouse IgG1 isotype control was used at 10 μg/mL/1×10^6 cells. Results are shown in FIG. 3B (Whole Blood) and FIG. 3C (PBMC).

B cells [5] = assay: Calcium flux in B cells of subjects treated in vivo with particulate oral β-glucan, then stimulated with anti-IgM; set-up: species or system human; conditions: 100 mg/day to 1000 mg/day, anti-IgM 10, 2 or 0.4 μg/mL
Procedure: Blood was drawn from untreated donors (n=15) or donors (n=12) treated with particulate oral β-glucan (U.S. Pat. No. 7,981,447) at dosages ranging from 100 mg/day to 1000 mg/day. PBMCs were isolated from blood using a ficoll gradient.
The isolated PBMCs were treated with 6 μM FURA RED and 3 μM FLUO-4 (each from Invitrogen, Life Technologies Corp., Carlsbad, Calif.) in PBS for 45 minutes at 37° C. The cells were washed 2× with PBS and stained with anti-CD20 APC (BioLegend, Inc., San Diego, Calif.) for 20 minutes at room temperature. Cells were washed 2× and resuspended in RPMI containing 2.5% FCS for FACS analysis. Calcium flux was induced by stimulating the B cells with goat anti-human IgM at 10 μg/mL, 2 μg/mL, or 0.4 μg/mL.

Substance: BT-1110: bovine serum albumin (BSA) conjugated to IMPRIME PGG
- MFI of BfD IV staining on B cells compared to unconjugated IMPRIME PGG ([1]; 50 μg/mL, whole blood): higher

Substance: Laminarin [reference compound]
- binding to B cells in enriched PBMC (MFI of BfD IV staining) [2]: bind directly to human B cells

- binding to CR2 on B cells (blocking by anti-CR2 antibody) [4]: binds to complement receptor 2
Substance: β(1,6)-[poly-1,3)-D-glucopyranosyl]-poly-b(1,3)-D-glucopyranose [IMPRIME PGG]
- binding to Raji B cell tumor line (Raji cells): bound to these tumor lines in a concentration-dependent manner
- binding to B cells in enriched PBMC (MFI of BfD IV staining) [2]: bind directly to human B cells
- calcium flux of B cells after goat anti-human IgM stimulation (B cells [3]): larger and more sustained calcium flux
- binding to Daudi B cell tumor line (Daudi cells): bound to these tumor lines in a concentration-dependent manner
- binding to B cells in whole blood (MFI of BfD IV staining) ([1]; various concentrations, 37° C., 60 minutes): bind directly to human B cells
- β-glucan detected on CD19+ B cells with anti-β-glucan antibody BfD IV (CD19+ B cells): positive for β-glucan

Substance: β(1,6)-[poly-1,3)-D-glucopyranosyl]-poly-b(1,3)-D-glucopyranose [particulate form of β-glucan]
- calcium flux of B cells after goat anti-human IgM stimulation, treated vs untreated subjects (B cells [5]): decrease calcium flux
